Reference: paper PMC1989143, “An Expanded Set of Amino Acid Analogs for the Ribosomal Translation of Unnatural Peptides” (PLoS ONE, 2007)

Key:
[1] = molecular target: T1, ThrRS (Escherichia coli, UniProt P0A8M3); experiment: tRNA aminoacylation competition assay, MALDI-TOF MS; format: biochemical; conditions: 50000 µM; 50 µM natural Thr (Table 3), 6 mM ATP, 17 mM MgCl2, E. coli total tRNA, pH 7.4, 37 °C; competitive
T1 construct: gene thrS; His-tagged, recombinant, purified
Excerpt: tRNA aminoacylation competition assay, MALDI-TOF MS on ThrRS

[2] = molecular target: T2, PheRS (Escherichia coli, UniProt P08312); experiment: as above; format: biochemical; conditions: 5000 µM; 5 µM natural Phe (Table 3), 6 mM ATP, 17 mM MgCl2, E. coli total tRNA, pH 7.4, 37 °C; competitive
T2 construct: gene pheS; His-tagged, recombinant, purified; wild-type enzyme; with Phenylalanine--tRNA ligase beta subunit
T2 sequence (P08312 whole entry): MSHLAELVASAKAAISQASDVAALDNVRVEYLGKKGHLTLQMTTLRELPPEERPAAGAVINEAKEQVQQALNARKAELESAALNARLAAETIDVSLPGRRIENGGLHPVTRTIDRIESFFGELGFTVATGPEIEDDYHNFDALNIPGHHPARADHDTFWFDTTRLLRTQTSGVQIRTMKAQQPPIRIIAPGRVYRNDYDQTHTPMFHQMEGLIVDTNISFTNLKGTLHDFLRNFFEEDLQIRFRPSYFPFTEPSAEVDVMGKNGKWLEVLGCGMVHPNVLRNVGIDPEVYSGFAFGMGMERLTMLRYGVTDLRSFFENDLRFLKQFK
T2 sequence (P07395 whole entry partner): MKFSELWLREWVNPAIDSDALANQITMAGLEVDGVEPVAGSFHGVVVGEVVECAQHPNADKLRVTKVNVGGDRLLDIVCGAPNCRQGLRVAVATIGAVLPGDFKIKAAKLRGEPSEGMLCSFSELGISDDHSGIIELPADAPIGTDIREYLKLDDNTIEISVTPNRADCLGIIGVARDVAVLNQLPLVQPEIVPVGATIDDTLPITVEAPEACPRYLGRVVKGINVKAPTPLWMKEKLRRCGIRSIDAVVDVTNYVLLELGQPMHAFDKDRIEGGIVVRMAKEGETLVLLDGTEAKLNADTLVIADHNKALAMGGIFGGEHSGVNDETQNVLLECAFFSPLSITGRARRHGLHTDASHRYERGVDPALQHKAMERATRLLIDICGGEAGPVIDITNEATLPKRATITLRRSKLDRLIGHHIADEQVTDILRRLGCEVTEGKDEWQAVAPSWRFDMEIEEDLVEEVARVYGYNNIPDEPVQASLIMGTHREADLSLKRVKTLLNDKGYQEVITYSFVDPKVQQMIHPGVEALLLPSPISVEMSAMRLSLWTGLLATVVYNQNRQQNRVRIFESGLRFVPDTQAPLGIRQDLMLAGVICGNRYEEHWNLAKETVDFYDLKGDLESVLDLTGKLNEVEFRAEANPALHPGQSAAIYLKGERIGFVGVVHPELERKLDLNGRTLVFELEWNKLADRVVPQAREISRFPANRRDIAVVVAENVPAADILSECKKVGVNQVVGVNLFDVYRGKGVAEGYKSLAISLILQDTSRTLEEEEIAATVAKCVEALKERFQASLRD
Excerpt: tRNA aminoacylation competition assay, MALDI-TOF MS on PheRS

T1 sequence (P0A8M3 whole entry): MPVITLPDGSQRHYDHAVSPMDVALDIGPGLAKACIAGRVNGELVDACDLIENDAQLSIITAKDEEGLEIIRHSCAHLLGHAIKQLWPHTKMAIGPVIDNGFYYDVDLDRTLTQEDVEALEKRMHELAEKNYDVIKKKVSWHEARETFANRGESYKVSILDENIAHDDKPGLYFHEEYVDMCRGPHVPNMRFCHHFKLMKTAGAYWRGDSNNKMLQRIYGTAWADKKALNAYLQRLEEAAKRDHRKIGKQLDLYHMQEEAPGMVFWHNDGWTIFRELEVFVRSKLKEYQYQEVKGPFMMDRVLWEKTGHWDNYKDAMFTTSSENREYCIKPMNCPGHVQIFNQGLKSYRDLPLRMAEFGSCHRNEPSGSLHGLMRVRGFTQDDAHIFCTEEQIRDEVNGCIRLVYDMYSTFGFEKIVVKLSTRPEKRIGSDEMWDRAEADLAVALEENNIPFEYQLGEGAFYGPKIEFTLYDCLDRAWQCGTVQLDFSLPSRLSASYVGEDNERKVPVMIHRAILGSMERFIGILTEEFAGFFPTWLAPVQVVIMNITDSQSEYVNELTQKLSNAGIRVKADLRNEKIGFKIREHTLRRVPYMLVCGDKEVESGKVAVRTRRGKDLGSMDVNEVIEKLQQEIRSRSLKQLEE

% Inhibition ^b [1] | SMILES | % Inhibition ^b [2]
92 (range 2.9) % | CCC(O)C(N)C(=O)O (racemic) [P5, DL-β-hydroxy norvaline] | 
 | NC(Cc1ccccc1F)C(=O)O (centres unmarked) [A5, 2-fluoro Phe] | 78 (range 2.1) %
